Patent US20040186170A1, “Benzofuran derivatives, pharmaceutical composition containing the same, and a process for the preparation of the active ingredient” (EGIS GYOGYSZERGYAR, priority 1998, published 2004)
Counter-ions that a name gives are not always drawn. Like-named read-outs stand apart in the source and are kept apart here.

Experiments:
[1] = tested on: isolated perfused rat heart; test: TTC prolonging effect in isolated Langendorff rat hearts (global ischemia)
Experimental: Measurement of the cardioprotective effect in ischemic rat heart (Langendorff) preparation
The time lapsed after starting global ischemia until the beginning of contracture (i.e. time to contracture=TTC) is prolonged by several cardioprotective compounds, thus, the effectiveness of the compounds can be examined by measuring TTC.
Male Sprague-Dawley rats weighing 300 to 350 g were injected with 2500 IU (0.5 ml) of heparin i.p. and 10 minutes later the animals were anaesthetized with sodium pentobarbital/5-ethyl-5-(1-methylbutyl)-2,4,6(1H,3H,5H)-pyrimidinetrione sodium salt/ in a dose of 60 mg/kg i.p. The heart was quickly excised, and the aorta was connected to a cannula fixed to a Langendorff apparatus. The heart was perfused at a constant pressure (8000 Pa) with a modified carbogenized Krebs-Henseleit solution. The composition of the solution was the following (in mM): NaCl 118, KCl 4.7, MgSO4 1.6, CaCl2 2.5, NaHCO3 24.88, KH2PO4 1.18, EDTA 0.5, glucose 11. Partial CO2 pressure and pH of the solution were maintained within the physiological limits (pCO2 4000-4650 Pa, pH=7.3-7.45).
A hole was cut in the wall of the left atrium and a water-filled plastic balloon attached to a metal cannula was inserted into the left ventricle. End diastolic pressure of the left ventricle was set to a value between 666-1333 Pa during the equilibration period by changing the volume of the liquid in the balloon, however, later it was not modified.
After a 20 minutes' equilibration period, the hearts were perfused for 10 minutes with the vehicle (0.04% of dimethyl sulfoxide), in case of the control group, or with a solution of the test substance at 10^−6 or 10^−5 M concentration, in case of the treated groups. The activity of the test compound was not examined further when, at the end of the 10 minutes' period, the systolic pressure of the left ventricle was reduced by more than 20%, compared to the control value determined before the treatment.
Global ischemia was initiated by completely shutting off the perfusate flow and carbogenization for 25 minutes. The time period from the beginning of ischemia until the formation of myocardial contracture i.e. an increase of 666 Pa in left ventricular end diastolic pressure (TTC) was measured.
3 parallel experiments were performed with the test compounds at each concentration and parameters of 3 additional vehicle (0.04% dimethyl sulfoxide) treated hearts were measured along with the test substance.
Individual TTC values were averaged, and the effect of the test substances was expressed as a percentage change compared to the vehicle treated group. […] As a reference substance, lemakalim i.e. (3S)-trans-3,4-dihydro-3-hydroxy-2,2-dimethyl-4-(2-oxo-1-pyrrolidinyl)-2H-1-benzpyrane-6-carbonitrile was used.

[2] = biological target: T1, 5-HT1A receptor (Rattus norvegicus, UniProt P19327); test: 5-HT1A receptor binding assay
T1 sequence (P19327 1-422): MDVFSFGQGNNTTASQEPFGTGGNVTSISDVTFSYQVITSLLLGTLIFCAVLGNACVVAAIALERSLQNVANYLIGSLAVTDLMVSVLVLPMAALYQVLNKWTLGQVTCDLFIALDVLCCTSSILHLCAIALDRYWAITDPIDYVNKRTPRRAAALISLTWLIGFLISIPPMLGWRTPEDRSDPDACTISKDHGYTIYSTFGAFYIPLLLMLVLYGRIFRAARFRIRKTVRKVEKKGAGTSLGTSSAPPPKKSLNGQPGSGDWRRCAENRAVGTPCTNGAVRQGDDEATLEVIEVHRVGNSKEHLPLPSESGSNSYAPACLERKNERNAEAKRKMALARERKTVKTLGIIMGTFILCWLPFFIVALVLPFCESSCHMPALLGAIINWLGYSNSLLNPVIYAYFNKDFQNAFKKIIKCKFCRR

[3] = tested on: Male Sprague-Dawley rats; test: Elevated plus-maze test on rats; assay type: in vivo, rat; conditions: for MED (in mg/kg) p.o.: 60 minutes prior to the test, based on the time spent in the open arms
Experimental: Elevated Plus-Maze Test on Rats
The test was carried out according to a modified method of Pelow et al./J. Neurosci. Methods, 14, 149 (1985)/. The elevated plus-maze consists of two open and two 40 cm wall enclosed arms of the same size (50×15 cm) arranged in the shape of a cross. The arms of the same type are opposite to each other. The junction of the four arms forms a central square area (15×15 cm). The apparatus is made of a wooden material elevated to a height of 50 cm and illuminated by a dim light from above. Male Sprague-Dawley rats weighing 220 to 260 g were used for the experiment.
The rats were treated with the test or reference compounds 60 minutes prior to the test. The animals were then placed onto a central square area and were subjected to the test for 5 minutes. The following 4 different parameters were determined:
time spent in the open arms;
time spent in the closed arms;
number of entries into the open arms;
number of entries into the closed arms.
A compound was considered to be effective where significant increase was found either in the time spent in the open arms (in sec) or in the number of entries into the open arms when compared to the control animals (in percentage). Minimum effective doses (MED) were determined based on the time spent in the open arms for each compound examined. Buspirone was used as the reference material.

[4] = tested on: Male Wistar rats; test: Anxiolytic effect, Vogel's conflict test; conditions: half an hour before the examination, tolerated number of electric shocks
Experimental: Determination of the Anxiolytic Effect on the Basis of Vogel's Conflict Test
The anxiolytic effect was examined by the method of Vogel et al./Vogel, J. R., Beer, B., Clody, D. E., Psychopharmacologia (Berl.), 21, 1 (1971)/. Male Wistar rats weighing 180 to 200 g were left to be thirsty for 48 hours and starved for 24 hours before the test. The substances to be examined and the carriers, respectively, were administered to the animals half an hour before the examination. In the test chamber, the rats were allowed to drink from the drinking tube protruding into the chamber. Following every 20th lick, the apparatus emitted an electric shock of 0.7 mA through the drinking tube. During the test lasting for 5 minutes, the number of those electric shocks was registered which the animals accepted in order to quench their thirst. The effect of the compounds was expressed as the increase of the tolerated number of electric shocks in percentage.
Meprobamate/2-methyl-2-propyltri-methylenecarbamate/ was used as the reference substance.

[5] = 10^−5 M, time to contracture, change compared to the vehicle treated group
[6] = 10^−6 M, time to contracture, change compared to the vehicle treated group

**Q.** How did the “TTC change (in %) at 10^−5 M” value [1, 5] turn out when `CC1(C)Cc2cccc(OCC(O)CN3CC=C(c4cccc(C(F)(F)F)c4)CC3)c2O1.Cl` (stereo not drawn) [Example 8, 1-/3-(2,2-Dimethyl-2,3-dihydrobenzofuran-7-yloxy)-2-hydroxypropyl/-4-(3-trifluoromethyl-phenyl)-1,2,3,6-tetrahydropyridine hydrochloride] was run?
**A.** 90%

**Q.** And the “TTC change (in %) at 10^−6 M” value [1, 6]?
**A.** 43%

**Q.** For `CC1(C)Cc2cccc(OCC(O)CN3CCC(O)(c4cccc(C(F)(F)F)c4)CC3)c2O1` (stereo not drawn) [Example 9, 1-/3-(2,2-Dimethyl-2,3-dihydrobenzofuran-7-yloxy)-2-hydroxypropyl/-4-hydroxy-4-(3-tri-fluoromethylphenyl)piperidine hydrochloride], which “TTC change (in %) at 10^−6 M” value [1] is on record?
**A.** 90%

**Q.** What about the “TTC prolongation compared with lemakalim” value [1] of the same compound?
**A.** surpasses remarkably also the effect of lemakalim

**Q.** What about the Ki [2] of the same compound?
**A.** 20 nM

**Q.** With `CC1(C)Cc2cccc(OCC(O)CN3CCC(O)(c4ccc(Cl)cc4)CC3)c2O1` (stereo not drawn) [Example 14, 1-/3-(2,2-Dimethyl-2,3-dihydrobenzofuran-7-yloxy)-2-hydroxypropyl/-4-hydroxy-4-(4-chloro-phenyl)piperidine] as the compound, how does the Ki [2] read?
**A.** 10 nM

**Q.** Which “TTC change (in %) at 10^−5 M” value [1] does the source give for `CC1(C)Cc2cccc(OCC(O)CN3CCC(O)(c4ccc(F)cc4)CC3)c2O1` (stereo not drawn) [Example 16, 1-/3-(2,2-Dimethyl-2,3-dihydrobenzofuran-7-yloxy)-2-hydroxypropyl/-4-hydroxy-4-(4-fluoro-phenyl)piperidine] here?
**A.** 78%

**Q.** What about the “TTC change (in %) at 10^−6 M” value [1] of the same compound?
**A.** 5%

**Q.** And the “MED (in mg/kg) p.o.” value [3]?
**A.** 1 mg/kg

**Q.** And the Ki [2]?
**A.** 3 nM

**Q.** With `CC1(C)Cc2cccc(OCC(O)CN3CCC(O)(c4ccccc4)CC3)c2O1` (stereo not drawn) [Example 20, 1-/3-(2,2-Dimethyl-2,3-dihydrobenzofuran-7-yloxy)-2-hydroxypropyl/-4-hydroxy-4-phenyl-piperidine hydrochloride] as the compound, how does the “TTC change (in %) at 10^−5 M” value [1] read?
**A.** 65%

**Q.** And the “TTC change (in %) at 10^−6 M” value [1]?
**A.** 18%

**Q.** And the Ki [2]?
**A.** 6 nM

**Q.** `COc1ccc2cc(C3CCN(CC(O)COc4cccc5c4OC(C)(C)C5)CC3)ccc2c1.Cl` (stereo not drawn) [Example 23, 1-/3-(2,2-Dimethyl-2,3-dihydrobenzofuran-7-yloxy)-2-hydroxypropyl/-4-(6-methoxynaphth-2-yl)piperidine hydrochloride] was tested. Which “MED (in mg/kg) p.o.” value [3] did it give?
**A.** 3 mg/kg

**Q.** For `CC1(C)Cc2cccc(OCC(O)CN3CCC(O)(c4cccc(Cl)c4)CC3)c2O1` (stereo not drawn) [Example 24, 1-/3-(2,2-Dimethyl-2,3-dihydrobenzofuran-7-yloxy)-2-hydroxypropyl/-4-hydroxy-4-(3-chloro-phenyl)-piperidine hydrochloride], which “TTC change (in %) at 10^−6 M” value [1] is on record?
**A.** 47%

**Q.** What about the “MED (in mg/kg) p.o.” value [3] of the same compound?
**A.** 3 mg/kg

**Q.** And the Ki [2]?
**A.** 12 nM

**Q.** Which results are given for `COc1cccc(C2(O)CCN(CC(O)COc3cccc4c3OC(C)(C)C4)CC2)c1` (stereo not drawn) [Example 25, 1-/3-(2,2-Dimethyl-2,3-dihydrobenzofuran-7-yloxy)-2-hydroxypropyl/-4-hydroxy-4-(3-methoxyphenyl)-piperidine hydrochloride]?
**A.** TTC change (in %) at 10^−5 M [1]: 59%; TTC change (in %) at 10^−6 M [1]: 2%; anxiolytic effect compared with buspirone ([3]; in words): superior by one order of magnitude to buspirone; MED (in mg/kg) p.o. [3]: 0.3 mg/kg; Ki [2]: 0.7 nM

**Q.** Which “TTC change (in %) at 10^−6 M” value [1] does the source give for `COc1ccc(C2(O)CCN(CC(O)COc3cccc4c3OC(C)(C)C4)CC2)cc1` (stereo not drawn) [Example 26, 1-/3-(2,2-Dimethyl-2,3-dihydrobenzofuran-7-yloxy)-2-hydroxypropyl/-4-hydroxy-4-(4-methoxyphenyl)-piperidine] here?
**A.** 43%

**Q.** What about the Ki [2] of the same compound?
**A.** 3 nM

**Q.** With `Cc1ccc(C2(O)CCN(CC(O)COc3cccc4c3OC(C)(C)C4)CC2)cc1` (stereo not drawn) [Example 30, 1-/3-(2,2-Dimethyl-2,3-dihydrobenzofuran-7-yloxy)-2-hydroxypropyl/-4-hydroxy-4-(4-methyl-phenyl)piperidine hydrochloride] as the compound, how does the Ki [2] read?
**A.** 5 nM

**Q.** For `CC1(C)Cc2cccc(OCC(O)CN3CCC(C#N)(c4ccccc4)CC3)c2O1.Cl` (stereo not drawn) [Example 41, 1-/3-(2,2-Dimethyl-2,3-dihydrobenzofuran-7-yloxy)-2-hydroxypropyl/-4-cyano-4-phenyl-piperidine hydrochloride], which “TTC change (in %) at 10^−5 M” value [1] is on record?
**A.** 53%

**Q.** And the “TTC change (in %) at 10^−6 M” value [1]?
**A.** 32%

**Q.** For `CC1(C)Cc2cccc(OCC(O)CN3CCN(c4ccc(F)cc4)CC3)c2O1` (stereo not drawn) [Example 63, 1-/3-(2,2-Dimethyl-2,3-dihydrobenzofuran-7-yloxy)-2-hydroxypropyl/-4-(4-fluorophenyl)-piperazine], which “TTC change (in %) at 10^−5 M” value [1, 5] is on record?
**A.** 111%

**Q.** And the “TTC change (in %) at 10^−6 M” value [1, 6]?
**A.** −3%

**Q.** `CC1(C)Cc2cccc(OCC(O)CN3CCN(c4cccc(F)c4)CC3)c2O1` (stereo not drawn) [Example 66, 1-/3-(2,2-Dimethyl-2,3-dihydrobenzofuran-7-yloxy)-2-hydroxypropyl/-4-(3-fluorophenyl)-piperazine] was tested. Which “TTC change (in %) at 10^−5 M” value [1, 5] did it give?
**A.** 66%

**Q.** And the “TTC change (in %) at 10^−6 M” value [1, 6]?
**A.** 5%

**Q.** Which results are given for `COc1ccc(N2CCN(CC(O)COc3cccc4c3OC(C)(C)C4)CC2)cc1` (stereo not drawn) [Example 68, 1-/3-(2,2-Dimethyl-2,3-dihydrobenzofuran-7-yloxy)-2-hydroxypropyl/-4-(4-methoxyphenyl)-piperazine]?
**A.** TTC change (in %) at 10^−5 M [1, 5]: 43%; TTC change (in %) at 10^−6 M [1, 6]: 0%; MED in mg/kg ip. [4]: 20 mg/kg

**Q.** How did the “TTC change (in %) at 10^−5 M” value [1, 5] turn out when `CC1(C)Cc2cccc(OCC(O)CN3CCN(c4ccc(Cl)cc4)CC3)c2O1` (stereo not drawn) [Example 73, 1-/3-(2,2-Dimethyl-2,3-dihydrobenzofuran-7-yloxy)-2-hydroxypropyl/-4-(4-chlorophenyl)-piperazine] was run?
**A.** 49%

**Q.** What about the “TTC change (in %) at 10^−6 M” value [1, 6] of the same compound?
**A.** 19%

**Q.** `COc1cccc(N2CCN(CC(O)COc3cccc4c3OC(C)(C)C4)CC2)c1.Cl.Cl` (stereo not drawn) [Example 76, 1-/3-(2,2-Dimethyl-2,3-dihydrobenzofuran-7-yloxy)-2-hydroxypropyl/-4-(3-methoxyphenyl)-piperazine dihydrochloride] was tested. Which “TTC change (in %) at 10^−5 M” value [1, 5] did it give?
**A.** 80%

**Q.** What about the “TTC change (in %) at 10^−6 M” value [1, 6] of the same compound?
**A.** 25%

**Q.** For `O=C1CC2(CCCC2)CC(=O)N1CCCCN1CCN(c2ncccn2)CC1` [buspirone, reference compound], which “MED (in mg/kg) p.o.” value [3] is on record?
**A.** 3 mg/kg

**Q.** Which results are given for `CC1(C)Oc2ccc(C#N)cc2[C@@H](N2CCCC2=O)[C@@H]1O` [lemakalim, (3S)-trans-3,4-dihydro-3-hydroxy-2,2-dimethyl-4-(2-oxo-1-pyrrolidinyl)-2H-1-benzpyrane-6-carbonitrile, reference compound]?
**A.** TTC change (in %) at 10^−5 M [1, 5]: 55%; TTC change (in %) at 10^−6 M [1, 6]: 20%

**Q.** How did the “MED in mg/kg ip.” value [4] turn out when `CCCC(C)(COC(N)=O)COC(N)=O` [meprobamate, 2-methyl-2-propyltri-methylenecarbamate, reference compound] was run?
**A.** 50 mg/kg
